Source: article PMC2191575 (The Journal of Experimental Medicine, 1994)

Tested on: chimeric human/mouse MHC class II molecules
Format: binding

“influenza nucleoprotein (383-395): DR-restricted synthetic peptide (SRYWAIRTRSGGN)” was tested, and the “binding to chimeric MHC class II molecules” value was “Specific binding was also observed”.
